# Results as given in PubChem BioAssay AID1259407 (Chemical Carcinogenesis Research Information System (CCRIS), 2018).
# Active and inactive are the calls of the source. How the calls were made is not given here.
# Tested on: CCRIS mutagenicity, Ames/micronucleus/aberration tests
# Assay: CCRIS mutagenicity studies
# [1] = Test System: AMES SALMONELLA TYPHIMURIUM, Strain/Indicator: TA100, Metabolic Activation: NONE, Method: PREINCUBATION
# [2] = Test System: AMES SALMONELLA TYPHIMURIUM, Strain/Indicator: TA98, Metabolic Activation: NONE, Method: PREINCUBATION
# [3] = Test System: AMES SALMONELLA TYPHIMURIUM, Strain/Indicator: TA1535, Metabolic Activation: NONE, Method: PREINCUBATION
# [4] = Test System: AMES SALMONELLA TYPHIMURIUM, Strain/Indicator: TA1537, Metabolic Activation: NONE, Method: PREINCUBATION
smiles,measurement,setting,value
COc1cccc2c1C(=O)c1c(O)c3c(c(O)c1C2=O)C[C@@](O)(C(=O)CO)CC3O[C@H]1C[C@H](N(C)C)[C@H](O)[C@H](C)O1 (stereo partly drawn),mutagenic call,"Test System: AMES SALMONELLA TYPHIMURIUM, Strain/Indicator: TA98, Metabolic Activation: NONE",inactive; negative
same,mutagenic call,"Test System: AMES SALMONELLA TYPHIMURIUM, Strain/Indicator: TA98, Metabolic Activation: RAT, LIVER, S-9, AROCLOR 1254",inactive; negative
same,mutagenic call,"Test System: AMES SALMONELLA TYPHIMURIUM, Strain/Indicator: TA102, Metabolic Activation: NONE, Method: STANDARD PLATE",active; positive
same,mutagenic call,"Test System: UDS RAT HEPATOCYTES, Strain/Indicator: THY INCORP, Metabolic Activation: NONE, Method: AUTOMATIC COLONY COUNTER",active; positive
CC(=O)OC1Cc2cc3cccc4ccc5ccc1c2c5c43 (stereo not drawn),mutagenic call,"Test System: AMES SALMONELLA TYPHIMURIUM, Strain/Indicator: TA98, Metabolic Activation: NONE, Method: STANDARD PLATE",active; positive
same,mutagenic call,"Test System: AMES SALMONELLA TYPHIMURIUM, Strain/Indicator: TA100, Metabolic Activation: NONE, Method: STANDARD PLATE",active; positive
CCN=NC(C)(C)OO,mutagenic call,"Test System: AMES SALMONELLA TYPHIMURIUM, Strain/Indicator: TA1535, Metabolic Activation: NONE",inactive; negative
same,mutagenic call,"Test System: E. COLI, Strain/Indicator: WP2 (HCR-), Metabolic Activation: NONE",active; positive
Cc1c[nH]c2ccccc12,mutagenic call,[1],inactive; negative
same,mutagenic call,"Test System: AMES SALMONELLA TYPHIMURIUM, Strain/Indicator: TA100, Metabolic Activation: RAT LIVER S-9, PHENOBARBITOL/BETA-NAPHTHOFLAVONE, Method: PREINCUBATION",inactive; negative
Cc1c2cccc(F)c2c(C)c2c1ccc1ccccc12,mutagenic call,"Test System: CHINESE HAMSTER V-79, Strain/Indicator: V-79/OUABAIN, Metabolic Activation: CELL-MEDIATED, Method: STANDARD PLATE",active; positive
O=C(O)CCC(=O)OC[C@@H](NC(=O)C(Cl)Cl)[C@H](O)c1ccc([N+](=O)[O-])cc1,mutagenic call,"Test System: AMES SALMONELLA TYPHIMURIUM, Strain/Indicator: TA98, Metabolic Activation: HAMSTER, LIVER, S-9, AROCLOR 1254 (10%), Method: PREINCUBATION",inactive; negative
same,mutagenic call,[2],inactive; negative
same,mutagenic call,"Test System: AMES SALMONELLA TYPHIMURIUM, Strain/Indicator: TA98, Metabolic Activation: RAT, LIVER, S-9, AROCLOR 1254 (10%), Method: PREINCUBATION",inactive; negative
same,mutagenic call,"Test System: AMES SALMONELLA TYPHIMURIUM, Strain/Indicator: TA100, Metabolic Activation: HAMSTER, LIVER, S-9, AROCLOR 1254 (10%), Method: PREINCUBATION",inactive; negative
same,mutagenic call,[1],inactive; negative
same,mutagenic call,"Test System: AMES SALMONELLA TYPHIMURIUM, Strain/Indicator: TA100, Metabolic Activation: RAT, LIVER, S-9, AROCLOR 1254 (10%), Method: PREINCUBATION",inactive; negative
same,mutagenic call,"Test System: AMES SALMONELLA TYPHIMURIUM, Strain/Indicator: TA1535, Metabolic Activation: HAMSTER, LIVER, S-9, AROCLOR 1254 (10%), Method: PREINCUBATION",inactive; negative
same,mutagenic call,[3],inactive; negative
same,mutagenic call,"Test System: AMES SALMONELLA TYPHIMURIUM, Strain/Indicator: TA1535, Metabolic Activation: RAT, LIVER, S-9, AROCLOR 1254 (10%), Method: PREINCUBATION",inactive; negative
same,mutagenic call,"Test System: AMES SALMONELLA TYPHIMURIUM, Strain/Indicator: TA1537, Metabolic Activation: HAMSTER, LIVER, S-9, AROCLOR 1254 (10%), Method: PREINCUBATION",inactive; negative
same,mutagenic call,[4],inactive; negative
same,mutagenic call,"Test System: AMES SALMONELLA TYPHIMURIUM, Strain/Indicator: TA1537, Metabolic Activation: RAT, LIVER, S-9, AROCLOR 1254 (10%), Method: PREINCUBATION",inactive; negative
same,mutagenic call,"Test System: MOUSE LYMPHOMA, Strain/Indicator: L5178Y (TK+/TK-), Metabolic Activation: NONE, Method: SUSPENSION/PLATE",active; positive
same,mutagenic call,"Test System: MOUSE LYMPHOMA, Strain/Indicator: L5178Y (TK+/TK-), Metabolic Activation: RAT, LIVER, S-9, AROCLOR 1254, Method: SUSPENSION/PLATE",active; positive
same,mutagenic call,"Test System: MOUSE LYMPHOMA, Strain/Indicator: L5178Y (TK+/TK-), Metabolic Activation: RAT, LIVER, S-9, Method: SUSPENSION/PLATE",active; positive
C#CC1(O)CC[C@H]2[C@@H]3CCC4=CCCC[C@@H]4[C@H]3CC[C@@]21C (stereo partly drawn),mutagenic call,"End Point: IN VIVO CHROMOSOMAL ABERRATIONS, Test System: BONE MARROW CELLS, Species: MOUSE, Strain/Sex: SWISS ALBINO/FEMALE, Route: IP INJECTION",active; positive (structural changes)
Cc1cnc[nH]1,mutagenic call,"End Point: In vivo micronucleus, Test System: Bone marrow polychromatic erythrocytes, Species: Mouse, Strain/Sex: B6C3F1/Male, Route: Intraperitoneal",inactive; positive in trial 1; negative in trial 2; percentage of pces declined with incre
same,mutagenic call,"End Point: In vivo micronucleus, Test System: Polychromatic erythrocytes and Normochromatic erythrocytes, Species: Mouse, Strain/Sex: B6C3F1/Female, Route: Oral",inactive; negative (no increase in micronucleus frequencies at all levels; percentage of
same,mutagenic call,"End Point: In vivo micronucleus, Test System: Polychromatic erythrocytes and Normochromatic erythrocytes, Species: Mouse, Strain/Sex: B6C3F1/Male, Route: Oral",inactive; negative (no increase in micronucleus frequencies at all levels; percentage of
same,mutagenic call,[2],inactive; negative
same,mutagenic call,"Test System: AMES SALMONELLA TYPHIMURIUM, Strain/Indicator: TA98, Metabolic Activation: RAT LIVER S-9, PHENOBARBITAL AND BETA-NAPHTHOFLAVONE, Method: PREINCUBATION",inactive; negative
same,mutagenic call,[1],inactive; negative
same,mutagenic call,"Test System: AMES SALMONELLA TYPHIMURIUM, Strain/Indicator: TA100, Metabolic Activation: RAT LIVER S-9, PHENOBARBITAL AND BETA-NAPHTHOFLAVONE, Method: PREINCUBATION",inactive; negative
same,mutagenic call,"Test System: AMES SALMONELLA TYPHIMURIUM, Strain/Indicator: TA102, Metabolic Activation: NONE, Method: PREINCUBATION",inactive; negative
same,mutagenic call,"Test System: AMES SALMONELLA TYPHIMURIUM, Strain/Indicator: TA102, Metabolic Activation: RAT LIVER S-9, PHENOBARBITAL AND BETA-NAPHTHOFLAVONE, Method: PREINCUBATION",inactive; negative
same,mutagenic call,"Test System: AMES SALMONELLA TYPHIMURIUM, Strain/Indicator: TA104, Metabolic Activation: NONE, Method: PREINCUBATION",inactive; negative
same,mutagenic call,"Test System: AMES SALMONELLA TYPHIMURIUM, Strain/Indicator: TA104, Metabolic Activation: RAT LIVER S-9, PHENOBARBITAL AND BETA-NAPHTHOFLAVONE, Method: PREINCUBATION",inactive; negative
same,mutagenic call,[3],inactive; negative
same,mutagenic call,"Test System: AMES SALMONELLA TYPHIMURIUM, Strain/Indicator: TA1535, Metabolic Activation: RAT LIVER S-9, PHENOBARBITAL AND BETA-NAPHTHOFLAVONE, Method: PREINCUBATION",inactive; negative
same,mutagenic call,[4],inactive; negative
same,mutagenic call,"Test System: AMES SALMONELLA TYPHIMURIUM, Strain/Indicator: TA1537, Metabolic Activation: RAT LIVER S-9, PHENOBARBITAL AND BETA-NAPHTHOFLAVONE, Method: PREINCUBATION",inactive; negative
same,mutagenic call,"Test System: Ames Salmonella typhimurium, Strain/Indicator: TA97, Metabolic Activation: Hamster, liver, S-9, Aroclor 1254, Method: Preincubation",inactive; negative
same,mutagenic call,"Test System: Ames Salmonella typhimurium, Strain/Indicator: TA97, Metabolic Activation: None, Method: Preincubation",inactive; negative
same,mutagenic call,"Test System: Ames Salmonella typhimurium, Strain/Indicator: TA97, Metabolic Activation: Rat, liver, S-9, Aroclor 1254, Method: Preincubation",inactive; negative
same,mutagenic call,"Test System: Ames Salmonella typhimurium, Strain/Indicator: TA98, Metabolic Activation: Hamster, liver, S-9, Aroclor 1254, Method: Preincubation",inactive; negative
same,mutagenic call,"Test System: Ames Salmonella typhimurium, Strain/Indicator: TA98, Metabolic Activation: None, Method: Preincubation",inactive; negative
same,mutagenic call,"Test System: Ames Salmonella typhimurium, Strain/Indicator: TA98, Metabolic Activation: Rat, liver, S-9, Aroclor 1254, Method: Preincubation",inactive; negative
same,mutagenic call,"Test System: Ames Salmonella typhimurium, Strain/Indicator: TA100, Metabolic Activation: Hamster, liver, S-9, Aroclor 1254, Method: Preincubation",inactive; negative
same,mutagenic call,"Test System: Ames Salmonella typhimurium, Strain/Indicator: TA100, Metabolic Activation: None, Method: Preincubation",inactive; negative
same,mutagenic call,"Test System: Ames Salmonella typhimurium, Strain/Indicator: TA100, Metabolic Activation: Rat, liver, S-9, Aroclor 1254, Method: Preincubation",inactive; negative
same,mutagenic call,"Test System: Ames Salmonella typhimurium, Strain/Indicator: TA1535, Metabolic Activation: Hamster, liver, S-9, Aroclor 1254, Method: Preincubation",inactive; negative
same,mutagenic call,"Test System: Ames Salmonella typhimurium, Strain/Indicator: TA1535, Metabolic Activation: None, Method: Preincubation",inactive; negative
same,mutagenic call,"Test System: Ames Salmonella typhimurium, Strain/Indicator: TA1535, Metabolic Activation: Rat, liver, S-9, Aroclor 1254, Method: Preincubation",inactive; negative
same,mutagenic call,"Test System: E.COLI, Strain/Indicator: WP2UVRA/PKM101, Metabolic Activation: NONE, Method: PREINCUBATION",inactive; negative
same,mutagenic call,"Test System: E.COLI, Strain/Indicator: WP2UVRA/PKM101, Metabolic Activation: RAT LIVER S-9, PHENOBARBITAL AND BETA-NAPHTHOFLAVONE, Method: PREINCUBATION",inactive; negative
same,mutagenic call,"Test System: E.COLI, Strain/Indicator: WP2UVRA, Metabolic Activation: NONE, Method: PREINCUBATION",inactive; negative
same,mutagenic call,"Test System: E.COLI, Strain/Indicator: WP2UVRA, Metabolic Activation: RAT LIVER S-9, PHENOBARBITAL AND BETA-NAPHTHOFLAVONE, Method: PREINCUBATION",inactive; negative
